Results from patent publication US7202258B2, “α- and β-amino acid hydroxyethylamino sulfamic acid derivatives useful as retroviral protease inhibitors” (G.D. Searle & Co., priority 1992, dated 2007).
Where two headings read alike, the source gives them in different places.

Key:
[1] = tested on: CEM cells; experiment: Intrinsic toxicity of test compound in uninfected CEM cells (MTT); format: cell-based; details: human, 7 days
From the text: Methods, 20, 309–321 (1988). […] A Frozen culture c.

[2] = molecular target: T1, HIV protease (Human immunodeficiency virus type 1 group M subtype B, UniProt P04585); experiment: HIV protease enzyme assay (fluorescence, substrate 2-Ile-Nle-Phe(p-NO2)-Gln-ArgNH2); format: biochemical
T1 construct: HIV protease is diluted in the assay buffer to a final enzyme concentration of 12.3 nanomolar, based on a molecular weight of 10,780
From the text: The compounds of the present invention are effective HIV protease inhibitors. Utilizing an enzyme assay as described below, the compounds set forth in the examples herein disclosed inhibited the HIV enzyme. The preferred compounds of the present invention and their calculated IC50 (inhibiting concentration 50%, i.e., the concentration at which the inhibitor compound reduces enzyme activity by 50%) values are shown in Table 17. The enzyme method is described below. The substrate is 2-Ile-Nle-Phe(p-NO2)-Gln-ArgNH2. The positive control is MVT-101 (Miller, M. et al, Science, 246, 1149 (1989)]The assay conditions are as follows: • Assay buffer: 20 mM sodium phosphate, […] • 20% glycerol • 1 mM EDTA • 1 mM DTT • 0.1% CHAPS
The above described substrate is dissolved in DMSO, then diluted 10 fold in assay buffer. Final substrate concentration in the assay is 80 μM.
HIV protease is diluted in the assay buffer to a final enzyme concentration of 12.3 nanomolar, based on a molecular weight of 10,780.
The final concentration of DMSO is 14% and the final concentration of glycerol is 18%. The test compound is dissolved in DMSO and diluted in DMSO to 10× the test concentration; 10 μl of the enzyme preparation is added, the materials mixed and then the mixture is incubated at ambient temperature for 15 minutes. The enzyme reaction is initiated by the addition of 40 μl of substrate. The increase in fluorescence is monitored at 4 time points (0, 8, 16 and 24 minutes) at ambient temperature. Each assay is carried out in duplicate wells.

[3] = tested on: HIV-1; experiment: microbe, parasite or virus in culture; details: Human immunodeficiency virus 1, CCRF-CEM, 168 h, read-out: EC50 (nm)
Description: Assays were performed in 96-well tissue culture plates. CEM cells, a CD4^+ cell line, were grown in RPMI-1640 medium (Gibco) supplemented with a 10% fetal calf serum and were then treated with polybrene (2 μg/ml). An 80 μl volume of medium containing 1×10^4 cells was dispensed into each well of the tissue culture plate, no each well was added a 100 μl volume of test compound dissolved in tissue culture medium (or medium without test compound as a control) to achieve the desires final concentration and the cells were incubated at 37° C. for 1 hour. […] HIV-1 was diluted in culture medium to a concentration of 5×10^4 TCID50 per ml (TCID50=the dose of virus that infects 50% of cells in tissue culture), and a 20 μL volume of the virus sample (containing 1000 TCID50 of virus) was added to wells containing test compound and to wells containing only medium (infected control cells). Several wells received culture medium without virus (uninfected control cells). Likewise, the intrinsic toxicity of the test compound was determined by adding medium without virus to several wells containing test compound.
In experiments 2 and 4 the final concentrations of test compounds were 1, 10, 100 and 500 μg/ml. Either azidothymidine (AZT) or dideoxyinosine (ddI) was included as a positive drug control. […] DMSO was added to all control wells at an appropriate concentration.
Following the addition of virus, cells were incubated at 37° C. in a humidified, 5% CO2 atmosphere for 7 days. Test compounds could be added on days 0, 2 and 5 if desired. On day 7, post-infection, the cells in each well were resuspended and a 100 μl sample of each cell suspension was removed for assay. A 20 μL volume of a 5 mg/ml solution of 3-(4,5-dimethylthiazol-2-yl)-2,5-diphenyltetrazolium bromide (MTT) was added to each 100L cell suspension, and the cells were incubated for 4 hours at 27° C. in a 5% CO2 environment. […] To each sample was added 100 μl of 10% sodium dodecylsulfate in 0.01 N HCl to lyse the cells, and samples were incubated overnight. The absorbance at 590 nm was determined for each sample using a Molecular Devices microplate reader. Absorbance values for each set of wells is compared to assess viral control infection, uninfected control cell response as well as test compound by cytotoxicity and antiviral efficacy.

[4] = Table 18, compounds of Table 1C, read-out: IC50 or % Inhibition: IC50

SMILES | TD50 (nm) [1] | IC50 [2] | EC50 [3] | IC50 ([2]; Table 17, read-out: IC50) | IC50 [2, 4]
CC(C)CN(C[C@@H](O)[C@H](Cc1ccccc1)NC(=O)[C@H](CC(N)=O)NC(=O)c1ccc2ccccc2n1)S(=O)(=O)NC(C)(C)C [Entry 4] | 39,000 nM | 2 nM | < 15 nM |  | 
COc1ccc(COC(=O)NC[C@@H](C)C(=O)N[C@@H](Cc2ccccc2)[C@H](O)CN(CC(C)C)S(=O)(=O)NC(C)(C)C)cc1 [Entry 5] |  |  |  | 13 nM | 
CC(C)CN(C[C@@H](O)[C@H](Cc1ccccc1)NC(=O)[C@H](CC(N)=O)NC(=O)c1ccc2ccccc2n1)S(=O)(=O)N1CCN(C)CC1 [Entry 3] | 28,000 nM | 3 nM | 42 nM |  | 
CC(C)CN(C[C@@H](O)[C@H](Cc1ccccc1)NC(=O)OCc1ccccc1)S(=O)(=O)N1CCCCC1 [G] |  |  |  |  | 66 nM
CC(C)(C)NS(=O)(=O)N(CC1CCCCC1)C[C@@H](O)[C@H](Cc1ccccc1)NC(=O)OCc1ccccc1 [I] |  |  |  |  | 1700 nM
CCCCNS(=O)(=O)N(CC(C)C)C[C@@H](O)[C@H](Cc1ccccc1)NC(=O)[C@H](CC(N)=O)NC(=O)c1ccc2ccccc2n1 [Entry 2] | 65,000 nM | 5 nM | 23 nM |  | 
CCCCNS(=O)(=O)N(CC(C)C)C[C@@H](O)[C@H](Cc1ccccc1)NC(=O)[C@@H](NC(=O)CN(C)C)C(C)(C)C [Entry 1] | 56,000 nM | 40 nM | 167 nM |  | 
COC(=O)C(C)(C)NS(=O)(=O)N(CC(C)C)C[C@@H](O)[C@H](Cc1ccccc1)NC(=O)OCc1ccccc1 [J] |  |  |  |  | 2690 nM
